# Results taken from PMC8398766, “Do Small Molecules Activate the TrkB Receptor in the Same Manner as BDNF? Limitations of Published TrkB Low Molecular Agonists and Screening for Novel TrkB Orthosteric Agonists” (Pharmaceuticals, 2021).
# Entries after “also recorded” stand apart in the source; their conditions may differ.
# Assays:
# [1] = in vitro; conditions: mouse, microsomes
# [2] = target: T1, TrkB receptor (Rattus norvegicus, UniProt Q63604); assay: ELFI TrkB phosphorylation, orthosteric agonist mode, SN56 T48 cell line; assay type: cell-based; conditions: 0.125–100 μM, 15 min
# T1 construct: host or cells: SN56 T48 cell line
# Protocol: The SN56 T48 cell line with stable overexpression of the TrkB receptor was purchased from Emory University (Atlanta, GA, USA) and cultivated according to the protocol described in Jang et al., 2010 [12]. The cell lines were cultivated with the following reagents: DMEM High Glucose, fetal bovine serum (FBS), Penicillin-Streptomycin Solution 100×, and Trypsin-EDTA 1×; all were purchased from Biowest, and G418 was from ThermoFisher Scientific. For the ELFI experiments, cells were seeded (8000/well) on a PDL-treated 96-well plate (BioCoat™, Corning Inc., Corning, NY, USA) and 6-well plate (400,000/well) for lysate collection and immunoblot analysis.
# In the orthosteric agonist mode experiments, starved cells (5 h) were treated with compounds (0.125–100 μM; volume, 100 μL/well) or BDNF (0.01–10 nM; volume, 100 μL/well) dissolved in culture medium. In the allosteric modulation mode experiments, starved cells (5 h) were treated with final compound concentrations of 3, 10, and 30 μM; volume, 50 μL/well) in the presence of a rising concentration of BDNF (final concentration in well, 0.15–5 nM; volume, 50 μL/well). Corresponding treatment with DMSO (v/v) was performed for a control. Cells were treated for 15 min in both the orthosteric and allosteric modulation mode experiments.
# The analysis of TrkB receptor activation was performed using the ELFI method adapted from Boltayev et al. (2017) with some modifications. After compound treatment, experiments were stopped by fixing cells with 10% buffered formalin (Kolchem, Lodz, Poland) for 20 min (volume, 100 μL/well). Afterwards, cells were permeabilized with washing buffer (TBS+ 0.1% Tween20) for 15 min, and endogenous peroxidases were quenched by 20 min of incubation with 1% H2O2 dissolved in TBS (each solution: volume, 100 μL/well). Epitopes were blocked with 10% BSA (Biowest) dissolved in washing buffer for 2 h (volume, 100 μL/well) and incubated with anti-pTrkB (Tyr707) primary antibody (Cell Signaling Technology, Danvers, MA, USA) diluted in washing buffer (1:500; overnight at 4 °C; volume, 100 μL/well). After repeated washing, cells were incubated with HRP-linked anti-rabbit antibody (Cell Signaling Technology) for 2 h (1:1000; RT; volume, 100 μL/well) and washed. The cells were then incubated with 100 μL of ImmunoCruz™ Western Blotting Luminol (Santa Cruz Biotechnology, Dallas, TX, USA) for 1 min in the dark, and the signals were measured using a microplate luminometer (VICTOR Light 1420-060, PerkinElmer®, Waltham, MA, USA). For non-specific binding, cells were treated, with the exception of primary antibody.
# [3] = system: TrkB receptor and downstream proteins (PLCγ1, Akt1, ERK1/2); assay: Pharmacodynamics: immunoblot of hippocampus and frontal cortex; assay type: in vivo, BALB/c mice; conditions: 30 min and 2 h after 50 mg/kg p.o.
# Protocol: Compound treatment was stopped by lysing cells with N-PER™ Neuronal Protein Extraction Reagent (Thermo Fisher Scientific) containing 1 × PhosSTOP™ (Roche, Basel, Switzerland), 1 × Halt Protease Inhibitor Single-Use Cocktail (ThermoFisher Scientific) and 5 mM EDTA. The lysates were collected by scraping, and centrifuged (8000× g; 10 min at 4 °C), and the protein concentration was determined using a BCA Pierce kit (ThermoFisher Scientific). The lysates were stored at −80 °C until further processing. Samples containing 20 μg of protein were further denatured in 4 × Laemli Buffer with 5% β-mercaptoethanol at 95 °C for 5 min and electrophoresed on gels prepared using a 10% TGX Stain-Free™ FastCast™ Acrylamide Kit (Bio-Rad). Afterwards, the proteins were transferred (wet transfer, 100 V, 60 min) onto nitrocellulose membranes (GE Healthcare, Chicago, IL, USA), which were blocked in 5% BSA in TBS-T (TBS + 0.1% Tween20) for 2 h. […] After repeated washes (TBS-T), the proteins were detected with HRP-conjugated anti-rabbit antibodies (1:4000, RT, 2 h) (Cell Signaling Technology), and the blots were incubated with Clarity Max ECL Western Blotting Substrate (Bio-Rad). Blot images and chemiluminescence signals were captured using a ChemiDoc MP Imaging System, and densitometry values were calculated using the Image Lab software (Bio-Rad). […]
# [4] = target: T2, A1 (Homo sapiens, UniProt P30542); assay: BioPrint Profile Panel; conditions: Agonist, Receptor, read-out: % Inhibition of Control Specific Binding
# T2 construct: purchased Eurofins Discovery (Cerep) BioPrint Profile Panel
# Text: The BioPrint® Profile Panel service offered by Eurofins Discovery (Poitiers, France) was chosen to perform selectivity analysis.
# [5] = in vitro; conditions: human, Caco-2
# [6] = in vitro; conditions: PAMPA, pH 7.4
# [7] = PAMPA; conditions: 10 μM, 4 h
# T1 sequence (Q63604 32-821): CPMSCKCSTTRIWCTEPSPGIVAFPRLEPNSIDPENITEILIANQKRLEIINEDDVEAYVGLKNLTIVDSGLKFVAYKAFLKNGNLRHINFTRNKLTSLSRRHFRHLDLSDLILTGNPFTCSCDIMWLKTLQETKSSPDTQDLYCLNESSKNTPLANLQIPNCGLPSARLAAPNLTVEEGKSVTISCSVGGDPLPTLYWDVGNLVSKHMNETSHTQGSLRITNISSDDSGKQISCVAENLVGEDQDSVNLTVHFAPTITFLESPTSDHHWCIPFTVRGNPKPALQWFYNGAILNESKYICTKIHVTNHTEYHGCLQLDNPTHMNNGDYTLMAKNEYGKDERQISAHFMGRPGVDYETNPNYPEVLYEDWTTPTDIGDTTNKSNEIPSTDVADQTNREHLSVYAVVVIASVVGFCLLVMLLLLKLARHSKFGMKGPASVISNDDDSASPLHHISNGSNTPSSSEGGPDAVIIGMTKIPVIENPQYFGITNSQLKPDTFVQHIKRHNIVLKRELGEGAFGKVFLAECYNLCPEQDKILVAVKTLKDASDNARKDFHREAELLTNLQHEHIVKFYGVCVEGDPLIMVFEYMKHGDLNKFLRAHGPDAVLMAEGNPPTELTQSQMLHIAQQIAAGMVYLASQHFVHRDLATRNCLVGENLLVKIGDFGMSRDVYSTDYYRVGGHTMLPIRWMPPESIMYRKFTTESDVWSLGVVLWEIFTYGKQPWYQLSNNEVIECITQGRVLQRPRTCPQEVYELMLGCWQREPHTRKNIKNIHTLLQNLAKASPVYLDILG
# T2 sequence (P30542 whole entry): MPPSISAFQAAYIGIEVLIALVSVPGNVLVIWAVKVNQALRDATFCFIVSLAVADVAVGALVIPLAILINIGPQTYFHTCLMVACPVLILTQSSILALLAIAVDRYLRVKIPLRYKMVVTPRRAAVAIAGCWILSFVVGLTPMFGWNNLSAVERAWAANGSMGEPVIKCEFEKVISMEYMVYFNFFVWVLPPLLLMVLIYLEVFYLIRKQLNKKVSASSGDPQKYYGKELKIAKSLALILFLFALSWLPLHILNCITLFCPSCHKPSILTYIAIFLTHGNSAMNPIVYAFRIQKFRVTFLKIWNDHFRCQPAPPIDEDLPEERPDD
structure (smiles),measurement,setting,value
"O=c1cc(-c2ccccc2)oc2c(O)c(O)ccc12 [7,8-DHF, 7,8-dihydroxyflavone]",microsomal CLint at 1 μM,[1],21.3 µL/min/mg
same,Orthosteric activity (induction of TrkB phosphorylation),[2],failed to show any activity; also recorded: does not occur
same,Activation of the TrkB receptor (phosphorylation),[3],did not observe any activation; also recorded: no effect
same,"PLCγ1, Akt1, and ERK1/2 phosphorylation",[3],no impact
same,inhibition at 10 µM,[4],99%
same,Papp A→B at 2 h,[5],22.8 ×10⁻⁶ cm/s
same,Papp B→A at 2 h,[5],12.4 ×10⁻⁶ cm/s
same,"Papp at 4 h, 10 μM",[6],15.8 ×10⁻⁶ cm/s
C=CC(C)(C)c1[nH]c2ccccc2c1C1=C(O)C(=O)C(c2c[nH]c3c(CC=C(C)C)cccc23)=C(O)C1=O [DMAQ-B1],PAMPA,[7],6.93 10^−6·cm/s
